Experimental findings from PubChem BioAssay AID1996 are described below.

Molecules are shown by their SMILES. ≈ marks a conversion by molar mass, not a printed value.

For the data set the following is noted: buffer; pH 7.4; 200.0 µM.
Regarding `O=C(CN1C(=O)/C(=C2/SC(=S)N(CCS(=O)(=O)O)C2=O)c2ccccc21)Nc1cccc(C(F)(F)F)c1`, the kinetic solubility amounted to 5.9 µg/mL (≈ 10.3 µM).
Compound `O=C(O)CCCC(=O)N1CCOCCOCCOCCOCC1` yielded a solubility (kinetic) of 48.2 µg/mL (≈ 145 µM). Compared with the last compound, the solubility kinetic is about 8.2-fold higher.
The figure for `COc1ccc(NC(=O)C2CC(=O)N(c3ccccc3C)C2)c(OC)c1` (stereo unspecified) is over 53.2 µg/mL; for `Br.Cc1ccc(C2=CSC3=NCCN23)cc1` it is 43.2 µg/mL.
Next, `C=CC[C@H]1CC(C)=C[C@H](CC=C)[NH2+]1.[Cl-]`: over 32.1 µg/mL.
The figure for `CC(NC(=O)c1cccs1)c1ccc(Br)cc1` (stereo unspecified) is 3.8 µg/mL (≈ 12.2 µM); for `COc1ccccc1N1CCNCC1.Cl` it is 28.2 µg/mL; for `O=C(Nc1ncccn1)C12CC3CC(CC(C3)C1)C2` it is over 38.6 µg/mL.
The compound `Cc1ccc(NC(=O)NC(=O)c2ccccc2)cc1F` returned a kinetic solubility of under 0.3 µg/mL.
`Cn1c(=O)n(CC(=O)O)c(=O)c2c1nc1n2CCCN1Cc1ccccc1` registered a solubility (kinetic) of 51.3 µg/mL (≈ 139 µM).
The figure for `O=C(CNC(=O)c1ccc(Cl)cc1Cl)OCCOc1ccccc1F` is 51.2 µg/mL (≈ 133 µM).
As for `COc1cc2ccccc2cc1C(=O)N1CCCC(C(F)(F)F)C1` (stereo unspecified), the solubility (kinetic) is over 50.6 µg/mL.
Next, `O=C(O)c1ccccc1C(=O)Nc1c(-c2ccccc2)nc2ccccn12`: 49.6 µg/mL (≈ 139 µM); `CS(=O)(=O)N1Cc2ccccc2CC1C(=O)OCC(=O)NCc1ccccc1` (stereo unspecified): over 60.4 µg/mL; `CC[C@H](C)[C@H](NC(N)=O)C(=O)Nc1ccccc1F`: over 40.1 µg/mL.
The figure for `COc1ccc(NC(=O)C2CC(c3ccccc3O)=NO2)cc1OC` (stereo unspecified) is 1.5 µg/mL (≈ 4.38 µM); for `COC(=O)c1ccc(OC(=O)c2cccnc2SC)cc1` it is under 0.6 µg/mL; for `CC(C)(C)NC(=O)NC(=O)CN1CCN(c2ccccc2O)CC1` it is 44.8 µg/mL (≈ 134 µM).
`COC(=O)CCCC(=O)N1CCC(CCC(=O)NC2CC2)CC1` gave a solubility (kinetic) of over 48.7 µg/mL.
Next, `O=C(COC(=O)C1(c2ccc(Cl)cc2)CCCC1)NCc1ccco1`: 20.7 µg/mL (≈ 57.2 µM); `Nc1ccc2nc(SCC(=O)c3ccccc3)sc2c1`: 1.8 µg/mL (≈ 5.99 µM); `Cc1ccc(S(=O)(=O)Nc2cnc3ccccc3c2)cc1`: over 44.8 µg/mL.
The figure for `COc1ccccc1C(=O)NCCC(=O)NCC(c1ccccc1)N(C)C` (stereo unspecified) is over 55.4 µg/mL; for `CCCc1ccc2oc(C(=O)N(C)Cc3nccs3)c(C)c2c1` it is 14 µg/mL (≈ 42.6 µM).
The figure for `N#Cc1nc(-c2ccco2)oc1NCc1ccccc1Cl` is 1.1 µg/mL (≈ 3.67 µM); for `CN1C(=O)c2cccc3c(N(C)C)ccc(c23)C1=O` it is 5.9 µg/mL (≈ 23.2 µM).
`NC(=O)NC(=O)CSc1ccccc1` showed a kinetic solubility of over 31.5 µg/mL.
Compound `COc1cccc(OCCCn2ccnc2)c1.Cl` returned a kinetic solubility of 33.1 µg/mL.
`COc1ccc(Cl)cc1S(=O)(=O)NCCCn1ccnc1` yielded a solubility (kinetic) of 48.6 µg/mL (≈ 147 µM). This solubility kinetic and that of the compound before are within 1.5-fold of each other.
The figure for `Cc1cccc(C(=O)NCCNC(=O)c2cccnc2)c1` is 37.5 µg/mL (≈ 132 µM); for `N#CC(C#N)=C1C(=O)N(CCN2CCOCC2)c2ccccc21` it is over 46.3 µg/mL; for `CN(C(=O)c1ccc(N2CCOCC2)c([N+](=O)[O-])c1)C1CCCCC1` it is over 52.1 µg/mL.
Next, `COC(=O)c1ccc2c(=O)n(-c3ccccc3F)c(=S)[nH]c2c1`: 1 µg/mL (≈ 3.03 µM); `O=C(CN1CCCC1)Nc1ccc(Cl)cc1C(F)(F)F`: 22.3 µg/mL (≈ 72.7 µM); `Cc1ccc2sc(N(CCN(C)C)C(=O)c3ccc4ccccc4c3)nc2c1C.Cl`: 0.8 µg/mL.
The figure for `N#Cc1c(N)nc2c(c1-c1ccc(F)cc1)c(=O)nc1sccn12` is 5.7 µg/mL (≈ 16.9 µM); for `Cc1ccc(S(=O)(=O)Nc2ccncc2)c(C)c1.Cl` it is over 44.8 µg/mL.
Consider `CC(=O)Nc1ccc(S(=O)(=O)N[C@@H](C)C(=O)OCC(=O)c2ccc(C)cc2)cc1`, for which the kinetic solubility was 37.7 µg/mL (≈ 90.1 µM).
The figure for `O=C1c2cccc([N+](=O)[O-])c2C(=O)N1C1CCCCC1` is 17.7 µg/mL (≈ 64.5 µM); for `O=C(CN1C(=O)CNC1=O)Nc1ccc(Cl)cc1` it is over 40.2 µg/mL.
Next, `COc1ccc(C(=O)O)cc1S(=O)(=O)NCc1cccnc1`: over 48.4 µg/mL; `O=C(COC(=O)c1cc[n+]([O-])cc1)Nc1ccc(Cl)cc1Cl`: over 51.2 µg/mL.
Next, `COc1ccccc1N1CCN(C(=O)C2CC2)CC1`: over 39.1 µg/mL; `Cc1cc(O)c(N=Cc2cc3c(cc2[N+](=O)[O-])OCO3)cc1C`: 7 µg/mL (≈ 22.3 µM).
The compound `Cc1ccnc(NC(=O)Cc2ccc(-c3ccccc3)cc2)c1` returned a kinetic solubility of 4.3 µg/mL (≈ 14.2 µM). This solubility kinetic is about 1.6-fold lower than that of the compound before.
Next, `Cc1ccc(S(=O)(=O)/N=C(\N)c2ccc(F)cc2)cc1`: 38.1 µg/mL (≈ 130 µM); `CSc1ncc(C(=O)Nc2ccccc2Cl)c(C)n1`: 39.6 µg/mL (≈ 135 µM).
The figure for `CCC1C(=O)N=C(SCC(=O)Nc2nc3ccccc3s2)NC1=O` (stereo unspecified) is over 54.4 µg/mL; for `CCC(=O)Nc1ccc(C(=O)COC(=O)Cc2ccsc2)cc1` it is 15.9 µg/mL (≈ 48 µM); for `COc1cccc(/C=C/C(=O)OCC(=O)NCCc2ccccc2)c1` it is 6.7 µg/mL (≈ 19.7 µM).
The figure for `O=C(CSc1nc2ccccc2c(=O)[nH]1)Nc1ccc([N+](=O)[O-])cc1` is 5 µg/mL (≈ 14 µM).

Broadly, the kinetic solubility is the concentration staying in solution when a stock, usually in DMSO, is diluted into the medium.
